Data: patent publication US11793849B2, “Method of Chinese herbal medicine extract used for treating multiple diseases caused by drug resistant bacteria infection” (priority 2016, dated 2023)
Read-outs that look alike come from different tables or passages of the source.

System: MDRAB
Assay: Checkerboard assay (combined-use MIC, FIC)
Assay type: cell-based, Acinetobacter baumannii
Conditions: for FIC, all strains / MIC50 of the antibiotic after combined use / MIC90 of the antibiotic after combined use / reduction of the antibiotic's MIC50 vs single use / reduction of the antibiotic's MIC90 vs single use / share of strains with FIC ≤ 0.5: 20 MDRABs; for MIC: Acinetobacter baumannii, read-out: single-use MIC
How it was run: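 Checkerboard combinations of S20b and antibiotic run per NCCLS method against ESBL E. coli, MDR A. baumannii and MDR P. aeruginosa.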

[1] = antibiotic with 60% ethanol extract
[2] = antibiotic with 95% ethanol extract
[3] = antibiotic with EA (10% ethanol extract)
[4] = antibiotic with EA (water extract)

## C[C@H]1COc2c(N3CCN(C)CC3)c(F)cc3c(=O)c(C(=O)O)cn1c23 [LVX, Levofloxacin]
[1]
  FIC, all strains: ≤ 2
  MIC50 of the antibiotic after combined use: 4 µg/mL
  MIC90 of the antibiotic after combined use: 8 µg/mL
  reduction of the antibiotic's MIC50 vs single use: 50%
  reduction of the antibiotic's MIC90 vs single use: 75%
  share of strains with FIC ≤ 0.5: 5%
[2]
  FIC, all strains: ≤ 2
  MIC50 of the antibiotic after combined use: 4 µg/mL
  MIC90 of the antibiotic after combined use: 8 µg/mL
  reduction of the antibiotic's MIC50 vs single use: 50%
  reduction of the antibiotic's MIC90 vs single use: 75%
  share of strains with FIC ≤ 0.5: 20%
[3]
  FIC, all strains: ≤ 2
  MIC50 of the antibiotic after combined use: 4 µg/mL
  MIC90 of the antibiotic after combined use: 8 µg/mL
  reduction of the antibiotic's MIC50 vs single use: 50%
  reduction of the antibiotic's MIC90 vs single use: 75%
  share of strains with FIC ≤ 0.5: 25%
[4]
  FIC, all strains: ≤ 2
  MIC50 of the antibiotic after combined use: 2 µg/mL
  MIC90 of the antibiotic after combined use: 8 µg/mL
  reduction of the antibiotic's MIC50 vs single use: 75%
  reduction of the antibiotic's MIC90 vs single use: 75%
  share of strains with FIC ≤ 0.5: 35%
Strain A1, EA=10% ethanol extract
  MIC: 0.5 µg/mL
Strain A1, EA=60% ethanol extract
  MIC: 0.5 µg/mL
Strain A2, EA=10% ethanol extract
  MIC: 16 µg/mL
Strain A2, EA=60% ethanol extract
  MIC: 16 µg/mL
Strain A3, EA=10% ethanol extract
  MIC: 16 µg/mL
Strain A3, EA=60% ethanol extract
  MIC: 16 µg/mL
Strain A4, EA=10% ethanol extract
  MIC: 0.5 µg/mL
Strain A4, EA=60% ethanol extract
  MIC: 0.5 µg/mL
Strain A5, EA=10% ethanol extract
  MIC: 4 µg/mL
Strain A5, EA=60% ethanol extract
  MIC: 4 µg/mL
Strain A6, EA=10% ethanol extract
  MIC: 8 µg/mL
Strain A6, EA=60% ethanol extract
  MIC: 8 µg/mL
Strain A7, EA=10% ethanol extract
  MIC: 8 µg/mL
Strain A7, EA=60% ethanol extract
  MIC: 8 µg/mL
Strain A8, EA=10% ethanol extract
  MIC: 4 µg/mL
Strain A8, EA=60% ethanol extract
  MIC: 4 µg/mL
Strain A9, EA=10% ethanol extract
  MIC: 4 µg/mL
Strain A9, EA=60% ethanol extract
  MIC: 4 µg/mL
Strain A10, EA=10% ethanol extract
  MIC: 32 µg/mL
Strain A10, EA=60% ethanol extract
  MIC: 32 µg/mL
Strain A11, EA=10% ethanol extract
  MIC: 4 µg/mL
Strain A11, EA=60% ethanol extract
  MIC: 4 µg/mL
Strain A12, EA=10% ethanol extract
  MIC: 32 µg/mL
Strain A12, EA=60% ethanol extract
  MIC: 32 µg/mL
Strain A13, EA=10% ethanol extract
  MIC: 32 µg/mL
Strain A13, EA=60% ethanol extract
  MIC: 32 µg/mL
Strain A14, EA=10% ethanol extract
  MIC: 16 µg/mL
Strain A14, EA=60% ethanol extract
  MIC: 16 µg/mL
Strain A15, EA=10% ethanol extract
  MIC: 32 µg/mL
Strain A15, EA=60% ethanol extract
  MIC: 32 µg/mL
Strain A16, EA=10% ethanol extract
  MIC: 8 µg/mL
Strain A16, EA=60% ethanol extract
  MIC: 8 µg/mL
Strain A17, EA=10% ethanol extract
  MIC: 16 µg/mL
Strain A17, EA=60% ethanol extract
  MIC: 16 µg/mL
Strain A18, EA=10% ethanol extract
  MIC: 8 µg/mL
Strain A18, EA=60% ethanol extract
  MIC: 8 µg/mL
Strain A19, EA=10% ethanol extract
  MIC: 16 µg/mL
Strain A19, EA=60% ethanol extract
  MIC: 16 µg/mL
Strain A20, EA=10% ethanol extract
  MIC: 16 µg/mL
Strain A20, EA=60% ethanol extract
  MIC: 16 µg/mL
Strain A1, EA (10% ethanol extract) + LVX combined
  combined-use MIC: 0.0625 µg/mL
Strain A1, EA (60% ethanol extract) + LVX combined
  combined-use MIC: 0.0625 µg/mL
Strain A1, EA (P. clypearia 95% ethanol extract) combined with LVX
  combined-use MIC: 0.25 µg/mL
Strain A1, EA (water extract) with LVX
  combined-use MIC: 0.0625 µg/mL
Strain A2, EA (10% ethanol extract) + LVX combined
  combined-use MIC: 8 µg/mL
Strain A2, EA (60% ethanol extract) + LVX combined
  combined-use MIC: 16 µg/mL
Strain A2, EA (P. clypearia 95% ethanol extract) combined with LVX
  combined-use MIC: 8 µg/mL
Strain A2, EA (water extract) with LVX
  combined-use MIC: 16 µg/mL
Strain A3, EA (10% ethanol extract) + LVX combined
  combined-use MIC: 2 µg/mL
Strain A3, EA (60% ethanol extract) + LVX combined
  combined-use MIC: 0.0625 µg/mL
Strain A3, EA (P. clypearia 95% ethanol extract) combined with LVX
  combined-use MIC: 2 µg/mL
Strain A3, EA (water extract) with LVX
  combined-use MIC: 2 µg/mL
Strain A4, EA (10% ethanol extract) + LVX combined
  combined-use MIC: 0.0625 µg/mL
Strain A4, EA (60% ethanol extract) + LVX combined
  combined-use MIC: 0.0625 µg/mL
Strain A4, EA (P. clypearia 95% ethanol extract) combined with LVX
  combined-use MIC: 0.0625 µg/mL
Strain A4, EA (water extract) with LVX
  combined-use MIC: 0.0625 µg/mL
Strain A5, EA (10% ethanol extract) + LVX combined
  combined-use MIC: 2 µg/mL
Strain A5, EA (60% ethanol extract) + LVX combined
  combined-use MIC: 4 µg/mL
Strain A5, EA (water extract) with LVX
  combined-use MIC: 1 µg/mL
Strain A6, EA (10% ethanol extract) + LVX combined
  combined-use MIC: 4 µg/mL
Strain A6, EA (60% ethanol extract) + LVX combined
  combined-use MIC: 4 µg/mL
Strain A6, EA (P. clypearia 95% ethanol extract) combined with LVX
  combined-use MIC: 4 µg/mL
Strain A6, EA (water extract) with LVX
  combined-use MIC: 4 µg/mL
Strain A7, EA (10% ethanol extract) + LVX combined
  combined-use MIC: 4 µg/mL
Strain A7, EA (60% ethanol extract) + LVX combined
  combined-use MIC: 4 µg/mL
Strain A7, EA (P. clypearia 95% ethanol extract) combined with LVX
  combined-use MIC: 4 µg/mL
Strain A7, EA (water extract) with LVX
  combined-use MIC: 4 µg/mL
Strain A8, EA (10% ethanol extract) + LVX combined
  combined-use MIC: 2 µg/mL
Strain A8, EA (60% ethanol extract) + LVX combined
  combined-use MIC: 4 µg/mL
Strain A8, EA (P. clypearia 95% ethanol extract) combined with LVX
  combined-use MIC: 2 µg/mL
Strain A8, EA (water extract) with LVX
  combined-use MIC: 4 µg/mL
Strain A9, EA (10% ethanol extract) + LVX combined
  combined-use MIC: 0.0625 µg/mL
Strain A9, EA (60% ethanol extract) + LVX combined
  combined-use MIC: 0.0625 µg/mL
Strain A9, EA (P. clypearia 95% ethanol extract) combined with LVX
  combined-use MIC: 0.0625 µg/mL
Strain A9, EA (water extract) with LVX
  combined-use MIC: 0.0625 µg/mL
Strain A10, EA (10% ethanol extract) + LVX combined
  combined-use MIC: 8 µg/mL
Strain A10, EA (60% ethanol extract) + LVX combined
  combined-use MIC: 0.0625 µg/mL
Strain A10, EA (P. clypearia 95% ethanol extract) combined with LVX
  combined-use MIC: 2 µg/mL
Strain A10, EA (water extract) with LVX
  combined-use MIC: 8 µg/mL
Strain A11, EA (10% ethanol extract) + LVX combined
  combined-use MIC: 2 µg/mL
Strain A11, EA (60% ethanol extract) + LVX combined
  combined-use MIC: 4 µg/mL
Strain A11, EA (P. clypearia 95% ethanol extract) combined with LVX
  combined-use MIC: 4 µg/mL
Strain A11, EA (water extract) with LVX
  combined-use MIC: 2 µg/mL
Strain A12, EA (10% ethanol extract) + LVX combined
  combined-use MIC: 8 µg/mL
Strain A12, EA (60% ethanol extract) + LVX combined
  combined-use MIC: 1 µg/mL
Strain A12, EA (P. clypearia 95% ethanol extract) combined with LVX
  combined-use MIC: 1 µg/mL
Strain A12, EA (water extract) with LVX
  combined-use MIC: 2 µg/mL
Strain A13, EA (10% ethanol extract) + LVX combined
  combined-use MIC: 8 µg/mL
Strain A13, EA (60% ethanol extract) + LVX combined
  combined-use MIC: 0.0625 µg/mL
Strain A13, EA (P. clypearia 95% ethanol extract) combined with LVX
  combined-use MIC: 2 µg/mL
Strain A13, EA (water extract) with LVX
  combined-use MIC: 8 µg/mL
Strain A14, EA (10% ethanol extract) + LVX combined
  combined-use MIC: 8 µg/mL
Strain A14, EA (60% ethanol extract) + LVX combined
  combined-use MIC: 8 µg/mL
Strain A14, EA (P. clypearia 95% ethanol extract) combined with LVX
  combined-use MIC: 8 µg/mL
Strain A14, EA (water extract) with LVX
  combined-use MIC: 8 µg/mL
Strain A15, EA (10% ethanol extract) + LVX combined
  combined-use MIC: 16 µg/mL
Strain A15, EA (60% ethanol extract) + LVX combined
  combined-use MIC: 0.0625 µg/mL
Strain A15, EA (P. clypearia 95% ethanol extract) combined with LVX
  combined-use MIC: 2 µg/mL
Strain A15, EA (water extract) with LVX
  combined-use MIC: 0.0625 µg/mL
Strain A16, EA (10% ethanol extract) + LVX combined
  combined-use MIC: 4 µg/mL
Strain A16, EA (60% ethanol extract) + LVX combined
  combined-use MIC: 4 µg/mL
Strain A16, EA (P. clypearia 95% ethanol extract) combined with LVX
  combined-use MIC: 4 µg/mL
Strain A16, EA (water extract) with LVX
  combined-use MIC: 2 µg/mL
Strain A17, EA (10% ethanol extract) + LVX combined
  combined-use MIC: 4 µg/mL
Strain A17, EA (60% ethanol extract) + LVX combined
  combined-use MIC: 4 µg/mL
Strain A17, EA (P. clypearia 95% ethanol extract) combined with LVX
  combined-use MIC: 4 µg/mL
Strain A17, EA (water extract) with LVX
  combined-use MIC: 8 µg/mL
Strain A18, EA (10% ethanol extract) + LVX combined
  combined-use MIC: 4 µg/mL
Strain A18, EA (60% ethanol extract) + LVX combined
  combined-use MIC: 4 µg/mL
Strain A18, EA (P. clypearia 95% ethanol extract) combined with LVX
  combined-use MIC: 4 µg/mL
Strain A18, EA (water extract) with LVX
  combined-use MIC: 1 µg/mL
Strain A19, EA (10% ethanol extract) + LVX combined
  combined-use MIC: 2 µg/mL
Strain A19, EA (60% ethanol extract) + LVX combined
  combined-use MIC: 8 µg/mL
Strain A19, EA (P. clypearia 95% ethanol extract) combined with LVX
  combined-use MIC: 8 µg/mL
Strain A19, EA (water extract) with LVX
  combined-use MIC: 8 µg/mL
Strain A20, EA (10% ethanol extract) + LVX combined
  combined-use MIC: 4 µg/mL
Strain A20, EA (60% ethanol extract) + LVX combined
  combined-use MIC: 8 µg/mL
Strain A20, EA (P. clypearia 95% ethanol extract) combined with LVX
  combined-use MIC: 8 µg/mL
Strain A20, EA (water extract) with LVX
  combined-use MIC: 4 µg/mL
Strain AS, EA (P. clypearia 95% ethanol extract) combined with LVX
  combined-use MIC: 2 µg/mL
